Measured values from patent US12612407B2, “Imidazo[2,1-f][1,2,4]triazin-4-amine derivatives as TLR7 agonist” (BEIGENE, LTD., priority 2020, dated 2026).

Target: T1, human TLR7 (Homo sapiens, UniProt Q9NYK1)
T1 construct: host or cells: HEK293 (HEK-Blue hTLR7)
T1 sequence (Q9NYK1 27-1049): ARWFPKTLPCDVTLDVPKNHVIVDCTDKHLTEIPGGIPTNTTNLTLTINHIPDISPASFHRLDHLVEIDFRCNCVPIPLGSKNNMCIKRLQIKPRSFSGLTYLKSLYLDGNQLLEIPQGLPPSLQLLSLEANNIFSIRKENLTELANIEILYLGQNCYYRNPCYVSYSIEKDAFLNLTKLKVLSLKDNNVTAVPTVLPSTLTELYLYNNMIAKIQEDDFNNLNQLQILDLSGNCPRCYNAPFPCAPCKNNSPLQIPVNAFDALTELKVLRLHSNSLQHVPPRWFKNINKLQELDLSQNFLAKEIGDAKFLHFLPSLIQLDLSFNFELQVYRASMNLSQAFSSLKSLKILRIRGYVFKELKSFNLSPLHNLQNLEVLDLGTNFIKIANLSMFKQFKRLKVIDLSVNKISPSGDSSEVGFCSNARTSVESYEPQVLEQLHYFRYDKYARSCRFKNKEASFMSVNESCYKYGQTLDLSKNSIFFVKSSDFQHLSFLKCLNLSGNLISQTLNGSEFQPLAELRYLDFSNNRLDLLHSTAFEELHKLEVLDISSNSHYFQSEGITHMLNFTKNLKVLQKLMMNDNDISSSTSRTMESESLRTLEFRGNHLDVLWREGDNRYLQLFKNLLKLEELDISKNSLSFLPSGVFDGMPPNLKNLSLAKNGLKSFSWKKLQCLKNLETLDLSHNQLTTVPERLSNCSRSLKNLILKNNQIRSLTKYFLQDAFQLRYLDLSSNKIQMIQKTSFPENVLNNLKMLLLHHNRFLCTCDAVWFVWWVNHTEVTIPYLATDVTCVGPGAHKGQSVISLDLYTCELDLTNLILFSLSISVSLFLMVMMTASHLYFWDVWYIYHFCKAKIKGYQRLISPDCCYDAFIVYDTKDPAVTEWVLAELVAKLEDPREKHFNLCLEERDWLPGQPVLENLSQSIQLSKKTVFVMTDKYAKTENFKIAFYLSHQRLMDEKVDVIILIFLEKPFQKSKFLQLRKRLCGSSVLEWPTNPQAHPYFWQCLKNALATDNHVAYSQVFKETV
Experiment: HEK293-Blue hTLR7 Reporter Assay (QUANTI-BLUE, SEAP readout)
Type: cell-based
Details: HEK-Blue-hTLR7 cells, 24 hrs treatment, Table 1, B1-B232
Method in brief: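 HEK-Blue-hTLR7 cells expressing NF-κB/AP-1-driven SEAP, 4×10^4 cells/well, treated 24 h at 37° C with increasing compound concentrations. Supernatant SEAP measured with Quanti-blue substrate (10-30 min, 37° C) at 620-655 nm; EC50 from sigmoidal dose-response fit.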

EC50	Structure (SMILES)
270 nM	CCCCCc1nc(N)c2ncc(Cc3cnc(N4CCNCC4)c(C)c3)n2n1 [Compound B180, 7-((5-methyl-6-(piperazin-1-yl)pyridin-3-yl)methyl)-2-pentylimidazo[2,1-f][1,2,4]triazin-4-amine]
7.8 nM	CCCC(CC)Oc1nc(N)c2ncc(Cc3cnc(N4CCN(C(=O)CNC)CC4)c(C)c3)n2n1 (centres unmarked) [Compound B181, 1-(4-(5-((4-amino-2-(hexan-3-yloxy)imidazo[2,1-f][1,2,4]triazin-7-yl)methyl)-3-methylpyridin-2-yl)piperazin-1-yl)-2-(methylamino)ethan-1-one]
3.6 nM	CCCC(CCC)Nc1nc(N)c2ncc(Cc3cnc(N4CCC(N(C)C)CC4)c(C)c3)n2n1 [Compound B184, 7-((6-(4-(dimethylamino)piperidin-1-yl)-5-methylpyridin-3-yl)methyl)-N2-(heptan-4-yl)imidazo[2,1-f][1,2,4]triazine-2,4-diamine]
4.9 nM	CCCC(CCC)Oc1nc(N)c2ncc(Cc3cnc(N4CCC(N(C)C)CC4)c(C)c3)n2n1 [Compound B186, 7-((6-(4-(dimethylamino)piperidin-1-yl)-5-methylpyridin-3-yl)methyl)-2-(heptan-4-yloxy)imidazo[2,1-f][1,2,4]triazin-4-amine]
29 nM	CCC(CC)Oc1nc(N)c2ncc(Cc3cnc(N4CCC(N(C)C)CC4)c(C)c3)n2n1 [Compound B187, 7-((6-(4-(dimethylamino)piperidin-1-yl)-5-methylpyridin-3-yl)methyl)-2-(pentan-3-yloxy)imidazo[2,1-f][1,2,4]triazin-4-amine]
3.6 nM	CCCC(CCC)Oc1nc(N)c2ncc(Cc3cnc(N4CCN(C(=O)CN(C)C)CC4)c(C)c3)n2n1 [Compound B188, 1-(4-(5-((4-amino-2-(heptan-4-yloxy)imidazo[2,1-f][1,2,4]triazin-7-yl)methyl)-3-methylpyridin-2-yl)piperazin-1-yl)-2-(dimethylamino)ethan-1-one]
19 nM	CCC(CC)Oc1nc(N)c2ncc(Cc3cnc(N4CCC(CN(C)C)CC4)c(C)c3)n2n1 [Compound B189, 7-((6-(4-((dimethylamino)methyl)piperidin-1-yl)-5-methylpyridin-3-yl)methyl)-2-(pentan-3-yloxy)imidazo[2,1-f][1,2,4]triazin-4-amine]
7.9 nM	CCCC(CCC)Nc1nc(N)c2ncc(Cc3cnc(N4CCNCC4)c(C)c3)n2n1 [Compound B191, N2-(heptan-4-yl)-7-((5-methyl-6-(piperazin-1-yl)pyridin-3-yl)methyl)imidazo[2,1-f][1,2,4]triazine-2,4-diamine]
2680 nM	Cc1cc(Cc2cnc3c(N)nc(OCC4CCCCC4)nn23)cnc1N1CCNCC1 [Compound B192, 2-(cyclohexylmethoxy)-7-((5-methyl-6-(piperazin-1-yl)pyridin-3-yl)methyl)imidazo[2,1-f][1,2,4]triazin-4-amine]
902 nM	Cc1cc(Cc2cnc3c(N)nc(OCC4CCOC4)nn23)cnc1N1CCNCC1 (centres unmarked) [Compound B193, 7-((5-methyl-6-(piperazin-1-yl)pyridin-3-yl)methyl)-2-((tetrahydrofuran-3-yl)methoxy)imidazo[2,1-f][1,2,4]triazin-4-amine]
80 nM	Cc1cc(Cc2cnc3c(N)nc(OCC4CCOCC4)nn23)cnc1N1CCNCC1 [Compound B194, 7-((5-methyl-6-(piperazin-1-yl)pyridin-3-yl)methyl)-2-((tetrahydro-2H-pyran-4-yl)methoxy)imidazo[2,1-f][1,2,4]triazin-4-amine]
5.7 nM	CCCC(CCC)Nc1nc(N)c2ncc(Cc3cnc(N4CCN(C(=O)CNC)CC4)c(C)c3)n2n1 [Compound B196, 1-(4-(5-((4-amino-2-(heptan-4-ylamino)imidazo[2,1-f] [1,2,4]triazin-7-yl)methyl)-3-methylpyridin-2-yl)piperazin-1-yl)-2-(methylamino)ethan-1-one]
3.9 nM	CCCC(CCC)Oc1nc(N)c2ncc(Cc3cnc(N4CCN(C(=O)CNC)CC4)c(C)c3)n2n1 [Compound B197, 1-(4-(5-((4-amino-2-(heptan-4-yloxy)imidazo[2,1-f][1,2,4]triazin-7-yl)methyl)-3-methylpyridin-2-yl)piperazin-1-yl)-2-(methylamino)ethan-1-one]
4.1 nM	CCCC(CCC)Oc1nc(N)c2ncc(Cc3cnc(N4CCC(CN(C)C)CC4)c(C)c3)n2n1 [Compound B198, 7-((6-(4-((dimethylamino)methyl)piperidin-1-yl)-5-methylpyridin-3-yl)methyl)-2-(heptan-4-yloxy)imidazo[2,1-f][1,2,4]triazin-4-amine]
8.1 nM	CCC[C@H](C)Oc1nc(N)c2ncc(Cc3cnc(N4CCN(CCO)CC4)c(C)c3)n2n1 [Compound B199, (S)-2-(4-(5-((4-amino-2-(pentan-2-yloxy)imidazo[2,1-f][1,2,4]triazin-7-yl)methyl)-3-methylpyridin-2-yl)piperazin-1-yl)ethan-1-ol]
25 nM	CCC(CC)Oc1nc(N)c2ncc(Cc3cnc(N4CCN(C(=O)CN(C)C)CC4)c(C)c3)n2n1 [Compound B200, 1-(4-(5-((4-amino-2-(pentan-3-yloxy)imidazo[2,1-f][1,2,4]triazin-7-yl)methyl)-3-methylpyridin-2-yl)piperazin-1-yl)-2-(dimethylamino)ethan-1-one]
28 nM	CCC(CC)Oc1nc(N)c2ncc(Cc3cnc(N4CCN(C(=O)CNC)CC4)c(C)c3)n2n1 [Compound B201, 1-(4-(5-((4-amino-2-(pentan-3-yloxy)imidazo[2,1-f][1,2,4]triazin-7-yl)methyl)-3-methylpyridin-2-yl)piperazin-1-yl)-2-(methylamino)ethan-1-one]
7.3 nM	CCCC(C)Nc1nc(N)c2ncc(Cc3cnc(N4CCC(CNC)CC4)c(C)c3)n2n1 (centres unmarked) [Compound B204, 7-((5-methyl-6-(4-((methylamino)methyl)piperidin-1-yl)pyridin-3-yl)methyl)-N2-(pentan-2-yl)imidazo[2,1-f][1,2,4]triazine-2,4-diamine]
6.5 nM	CCCC(C)Oc1nc(N)c2ncc(Cc3cnc(N4CCC(CNC)CC4)c(C)c3)n2n1 (centres unmarked) [Compound B205, 7-((5-methyl-6-(4-((methylamino)methyl)piperidin-1-yl)pyridin-3-yl)methyl)-2-(pentan-2-yloxy)imidazo[2,1-f][1,2,4]triazin-4-amine]
5610 nM	CNCC(C)Oc1nc(N)c2ncc(Cc3cnc(N4CCNCC4)c(C)c3)n2n1 (centres unmarked) [Compound B206, 7-((5-methyl-6-(piperazin-1-yl)pyridin-3-yl)methyl)-2-((1-(methylamino)propan-2-yl)oxy)imidazo[2,1-f][1,2,4]triazin-4-amine]
7.4 nM	CCC(CC)Nc1nc(N)c2ncc(Cc3cnc(N4CCC(CN(C)C)CC4)c(C)c3)n2n1 [Compound B208, 7-((6-(4-((dimethylamino)methyl)piperidin-1-yl)-5-methylpyridin-3-yl)methyl)-N2-(pentan-3-yl)imidazo[2,1-f][1,2,4]triazine-2,4-diamine]

Structure (SMILES)	EC50
CCCCOc1nc(N)c2ncc(Cc3cnc(N4CCNCC4)c(CC)c3)n2n1 [Compound B183, 2-butoxy-7-((5-ethyl-6-(piperazin-1-yl)pyridin-3-yl)methyl)imidazo[2,1-f][1,2,4]triazin-4-amine]	93 nM
CCCC(Oc1nc(N)c2ncc(Cc3cnc(N4CCNCC4)c(C)c3)n2n1)C1CC1 (centres unmarked) [Compound B202, 2-(1-cyclopropylbutoxy)-7-((5-methyl-6-(piperazin-1-yl)pyridin-3-yl)methyl)imidazo[2,1-f][1,2,4]triazin-4-amine]	15 nM
